System: axon shaft mitochondria of DRG neurons
Assay: FRAP of Mito-GFP in proximal axon shaft segments of DRG neurons
Format: cell-based, rat
Excerpt: To determine if the effect of growth inhibitors on mitochondrial recovery was limited to distal axons, we performed FRAP on more proximal segments of the axon shaft in DRG neurons expressing Mito-GFP. For analyses of recovery, the bleached ROIs were divided into four subregions along the axon length so that we could distinguish anterograde from retrograde transport-driven Mito-GFP recovery. […] Since this effect of MAG-Fc on recovery could derive from either axons or cell body, we cultured dissociated DRGs in microfluiclic devices where we could limit exposure to MAG-Fc and TubA to the axons.
Mito-KR- and Mito-GFP-expressing DRG neurons were used for FRAP analyses at 48-72 h after transfection. To evaluate mitochondrial motility in Mito-KR-expressing neurons, Mito-KR signals were photobleached using continual exposure to an argon laser set at 594 nm for 30 s (100% laser power) The bleached ROI was then monitored for recovery using an argon laser set at 580 nm every 10 s over 16 min (13% laser power). […]
Vesicle trafficking was quantified using differential ImageJ Difference Tracker Plug-in (Andrews et al., 2010). 50-80-μm long unbranched axon segments at approximately the mid-region between growth cone and cell body were analyzed. […] The distance between the growth tip at end of the post-CALI sequence and the pre-CALI baseline was measured using LAS-X software. […]

CN1CCc2c(c3ccccc3n2Cc2ccc(C(=O)NO)cc2)C1 [TubA, tubastatin]
effect on MAG-Fc's attenuation of axonal Mito-GFP recovery (axon shaft) (HDAC6 inhibition with TubA): prevented by HDAC6 inhibition
Mito-GFP recovery pattern along axon shaft (TubA-treated cultures): more rapid recovery in proximal segments
